Measured values from patent US20100004243A1, “PHARMACEUTICAL COMPOUNDS” (Astex Therapeutics Limited, priority 2006, published 2010).

Target: T1, CDK4/CyclinD1 (Homo sapiens, UniProt P11802)
T1 construct: purchased Proqinase
Test: CDK4 kinase inhibitory activity assay (IC50)
Assay type: biochemical
Details: read-out: IC50 against CDK4
Description: Assays for CDK4 inhibitory activity can be carried out using the proprietary 33 PanQinase® Activity Assay of Proqinase GmbH, Freiburg, Germany. The assays are performed in 96 well FlashPlates™ (PerkinElmer). In each case, the reaction cocktail (50 μl final volume) is composed of; 20 μl assay buffer (final composition 60 mM HEPES-NaOH, pH 7.5, 3 mM MgCl2, 3 μM Na-orthovanadate, 1.2 mM DTT, 50 μg/ml PEG2000, 5 μl ATP solution (final concentration 1 μM [γ-33P]-ATP (approx 5×10^5 cpm per well)), 5 μl test compound (in 10% DMSO), 10 μl substrate/10 μl enzyme solution (premixed). The final amounts of enzyme and substrate are as below.
The reaction cocktail is incubated at 30° C. for 80 minutes. The reaction is stopped with 50 μl of 2% H3PO4, plates are aspirated and washed twice with 200 μl 0.9% NaCl. Incorporation of ^33P is determined with a microplate scintillation counter. Background values are subtracted from the data before calculating the residual activities for each well. IC50s are calculated using Prism 3.03.
Compounds of the invention can be tested for kinase inhibitory activity using the following protocol.
CDK4/CyclinD1 (Proqinase) is diluted to 12.5 nM in 5 mM Tris pH 7.5, 2.5 mM MgCl2, 25 μM EDTA, 2.5 m M DTT and 125 μM ATP. 10 μl of the enzyme solution is mixed with 10 μl of 100 μl biotin -KAPLSPKKAK4 (Altabioscience, 1 mM stock—10 mg in 2,250 μl H20), 900 μl H2O, 1 μl 10% triton and 35 μCi γ^33P-ATP) and added to 96 well plates along with 5 μl of various dilutions of the test compound in DMSO (up to 4%). The reaction is allowed to proceed for 2 hours before being stopped with an excess of ortho-phosphoric acid (20 μl at 2%).
γ^33P-ATP which remains unincorporated into the biotin -KAPLSPKKAK4 is separated from phosphorylated biotin -KAPLSPKKAK4 on a Millipore MAPH filter plate. The wells of the MAPH plate are wetted with 0.5% orthophosphoric acid, and then the results of the reaction are filtered with a Millipore vacuum filtration unit through the wells. Following filtration, the residue is washed twice with 200 μl of 0.5% orthophosphoric acid. Once the filters have dried, 20 μl of Microscint 20 scintillant is added, and then counted on a Packard Topcount for 30 seconds.
The % inhibition of the CDK4 activity is calculated and plotted in order to determine the concentration of test compound required to inhibit 50% of the CDK4 activity (IC50).

T1 sequence (P11802 whole entry): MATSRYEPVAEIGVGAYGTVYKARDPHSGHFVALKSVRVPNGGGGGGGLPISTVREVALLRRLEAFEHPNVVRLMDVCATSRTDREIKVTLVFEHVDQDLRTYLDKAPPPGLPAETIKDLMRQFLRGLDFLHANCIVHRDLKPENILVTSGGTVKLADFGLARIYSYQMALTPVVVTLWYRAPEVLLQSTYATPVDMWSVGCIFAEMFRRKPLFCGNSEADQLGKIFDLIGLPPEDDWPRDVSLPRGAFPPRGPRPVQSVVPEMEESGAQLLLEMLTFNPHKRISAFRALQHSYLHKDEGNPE
T1 sequence (P24385 whole entry partner): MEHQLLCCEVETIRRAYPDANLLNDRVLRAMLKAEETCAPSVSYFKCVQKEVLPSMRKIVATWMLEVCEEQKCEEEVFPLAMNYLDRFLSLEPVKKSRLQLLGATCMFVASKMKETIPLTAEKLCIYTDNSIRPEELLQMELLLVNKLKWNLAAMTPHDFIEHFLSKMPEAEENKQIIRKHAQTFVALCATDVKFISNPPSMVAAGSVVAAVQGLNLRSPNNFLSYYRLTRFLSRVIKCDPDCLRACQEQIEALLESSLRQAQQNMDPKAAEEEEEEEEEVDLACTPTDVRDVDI

Compound | IC50
O=C(Nc1ccc(N2CCNCC2)cn1)c1n[nH]cc1NC(=O)c1c(Cl)cccc1Cl [Example 7] | < 100 nM
CN(C)C1CCN(c2ccc(NC(=O)c3n[nH]cc3NC(=O)c3c(F)cccc3F)nc2)CC1 [Example 8] | < 100 nM
CN(C)C1CCN(c2ccc(NC(=O)c3n[nH]cc3NC(=O)c3c(F)cccc3F)cc2)CC1 [Example 9] | < 100 nM

Results, then the molecule that gave them:

IC50 | Compound
< 5000 nM | O=C(Nc1nnc(CCN2CCCCC2)s1)c1n[nH]cc1NC(=O)c1c(F)cccc1F [Example 1]
< 100 nM | O=C(Nc1ccc(N2CCNCC2)cn1)c1n[nH]cc1NC(=O)c1c(F)cccc1F [Example 10]

Target: CDK2/CyclinA (Homo sapiens, UniProt P24941)
Test: Activated CDK2/CyclinA kinase inhibitory activity assay, compared with CDK4
Assay type: biochemical
Details: not given
Description: Compounds of the invention were tested for kinase inhibitory activity using the following protocol.
Activated CDK2/CyclinA (Brown et al, Nat. Cell Biol., 1, pp 438-443, 1999; Lowe, E. D., et al Biochemistry, 41, pp 15625-15634, 2002) is diluted to 125 pM in 2.5× strength assay buffer (50 mM MOPS pH 7.2, 62.5 mM β-glycerophosphate, 12.5 mM EDTA, 37.5 mM MgCl2, […], 2.5 mM DTT, 2.5 mM sodium orthovanadate, 0.25 mg/ml bovine serum albumin), and 10 μl mixed with 10 μl of histone substrate mix (60 μl bovine histone Hi (Upstate Biotechnology, 5 mg/ml), 940 μl H2O, 35 μCi γ^33P-ATP) and added to 96 well plates along with 5 μl of various dilutions of the test compound in DMSO (up to 2.5%). The reaction is allowed to proceed for 2 to 4 hours before being stopped with an excess of orthophosphoric acid (5 μl at 2%). γ^33P-ATP which remains unincorporated into the histone H1 is separated from phosphorylated histone H1 on a Millipore MAPH filter plate. The wells of the MAPH plate are wetted with 0.5% orthophosphoric acid, and then the results of the reaction are filtered with a Millipore vacuum filtration unit through the wells. Following filtration, the residue is washed twice with 200 μl of 0.5% orthophosphoric acid. Once the filters have dried, 20 μl of Microscint 20 scintillant is added, and then counted on a Packard Topcount for 30 seconds.
The % inhibition of the CDK2 activity is calculated and plotted in order to determine the concentration of test compound required to inhibit 50% of the CDK2 activity (IC50).

selectivity for CDK4 relative to CDK2 (in words) | Compound
selective for CDK4 relative to CDK2 | O=C(Nc1ccc(N2CCNCC2)cn1)c1n[nH]cc1NC(=O)c1c(Cl)cccc1Cl [Example 7]
selective for CDK4 relative to CDK2 | CN(C)C1CCN(c2ccc(NC(=O)c3n[nH]cc3NC(=O)c3c(F)cccc3F)nc2)CC1 [Example 8]
selective for CDK4 relative to CDK2 | CN(C)C1CCN(c2ccc(NC(=O)c3n[nH]cc3NC(=O)c3c(F)cccc3F)cc2)CC1 [Example 9]
selective for CDK4 relative to CDK2 | O=C(Nc1ccc(N2CCNCC2)cn1)c1n[nH]cc1NC(=O)c1c(F)cccc1F [Example 10]
